PubChem BioAssay (NCI)
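Method: 48-hour compound exposure of cells in 96-well plates, five concentrations, linear interpolation of endpoints. The concentration for full growth arrest is given as TGI.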

Experiments:
Assay in all cases: NCI-60 cell line screen, 48 h
HL-60(TB) leukemia = test system: HL-60(TB) leukemia
ACHN renal = test system: ACHN renal
UACC-62 melanoma = test system: UACC-62 melanoma
HOP-92 NSCLC = test system: HOP-92 NSCLC
OVCAR-3 ovarian = test system: OVCAR-3 ovarian
RPMI-8226 leukemia = test system: RPMI-8226 leukemia
SW-620 colon = test system: SW-620 colon
CAKI-1 renal = test system: CAKI-1 renal
OVCAR-5 ovarian = test system: OVCAR-5 ovarian
UACC-257 melanoma = test system: UACC-257 melanoma
MOLT-4 leukemia = test system: MOLT-4 leukemia
PC-3 prostate = test system: PC-3 prostate
TK-10 renal = test system: TK-10 renal
NCI-H23 lung = test system: NCI-H23 lung
MDA-MB-231 breast = test system: MDA-MB-231 breast
HCT-15 colon = test system: HCT-15 colon
LOX IMVI melanoma = test system: LOX IMVI melanoma
MALME-3M melanoma = test system: MALME-3M melanoma
EKVX NSCLC = test system: EKVX NSCLC
NCI-H522 lung = test system: NCI-H522 lung
SF-539 CNS = test system: SF-539 CNS
UO-31 renal = test system: UO-31 renal
M14 melanoma = test system: M14 melanoma
A549 NSCLC = test system: A549 NSCLC
SNB-75 CNS = test system: SNB-75 CNS
HOP-62 NSCLC = test system: HOP-62 NSCLC
HCC-2998 colon = test system: HCC-2998 colon
CCRF-CEM leukemia = test system: CCRF-CEM leukemia
HT29 colon = test system: HT29 colon
786-0 renal = test system: 786-0 renal
IGROV1 ovarian = test system: IGROV1 ovarian
OVCAR-8 ovarian = test system: OVCAR-8 ovarian
KM12 colon = test system: KM12 colon
SNB-19 CNS = test system: SNB-19 CNS
A498 renal = test system: A498 renal
NCI/ADR-RES ovarian = test system: NCI/ADR-RES ovarian
SN12C renal = test system: SN12C renal
SK-MEL-28 melanoma = test system: SK-MEL-28 melanoma
U251 CNS = test system: U251 CNS
HCT-116 colon = test system: HCT-116 colon
BT-549 breast = test system: BT-549 breast
MDA-N = test system: MDA-N
MCF7 breast = test system: MCF7 breast
HS 578T breast = test system: HS 578T breast
MDA-MB-435 = test system: MDA-MB-435
SF-295 CNS = test system: SF-295 CNS
NCI-H460 lung = test system: NCI-H460 lung
SK-MEL-2 melanoma = test system: SK-MEL-2 melanoma
OVCAR-4 ovarian = test system: OVCAR-4 ovarian
SF-268 CNS = test system: SF-268 CNS
K-562 leukemia = test system: K-562 leukemia
T-47D breast = test system: T-47D breast
SK-OV-3 ovarian = test system: SK-OV-3 ovarian
SK-MEL-5 melanoma = test system: SK-MEL-5 melanoma
COLO 205 colon = test system: COLO 205 colon
RXF 393 renal = test system: RXF 393 renal
DU-145 prostate = test system: DU-145 prostate

Work on `CC(=O)NC1C(CO)O[C@@H]2OC(C)(C)O[C@H]12` (stereo not given in full) yielded a TGI (HL-60(TB) leukemia) of over 100 µM, a TGI (ACHN renal) of over 100 µM and a TGI (UACC-62 melanoma) of over 100 µM. The TGI (HOP-92 NSCLC) was over 100 µM, the TGI (OVCAR-3 ovarian) was over 100 µM and the TGI (RPMI-8226 leukemia) was over 100 µM. For the same molecule, the TGI (SW-620 colon) was over 100 µM, the TGI (CAKI-1 renal) was over 100 µM and the TGI (OVCAR-5 ovarian) was over 100 µM. It also gave a TGI (UACC-257 melanoma) of over 100 µM, a TGI (MOLT-4 leukemia) of over 100 µM and a TGI (PC-3 prostate) of over 100 µM. The TGI (TK-10 renal) was over 100 µM, the TGI (NCI-H23 lung) was over 100 µM and the TGI (MDA-MB-231 breast) was over 100 µM. It also gave a TGI (HCT-15 colon) of over 100 µM, a TGI (LOX IMVI melanoma) of over 100 µM and a TGI (MALME-3M melanoma) of over 100 µM. The TGI (EKVX NSCLC) was over 100 µM, the TGI (NCI-H522 lung) was over 100 µM and the TGI (SF-539 CNS) was over 100 µM. For the same molecule, the TGI (UO-31 renal) was over 100 µM, the TGI (M14 melanoma) was over 100 µM and the TGI (A549 NSCLC) was over 100 µM. It also gave a TGI (SNB-75 CNS) of over 100 µM, a TGI (HOP-62 NSCLC) of over 100 µM and a TGI (HCC-2998 colon) of over 100 µM. For the same molecule, the TGI (CCRF-CEM leukemia) was over 100 µM, the TGI (HT29 colon) was over 100 µM and the TGI (786-0 renal) was over 100 µM. It also gave a TGI (IGROV1 ovarian) of over 100 µM, a TGI (OVCAR-8 ovarian) of over 100 µM and a TGI (KM12 colon) of over 100 µM. The TGI (SNB-19 CNS) was over 100 µM, the TGI (A498 renal) was over 100 µM and the TGI (NCI/ADR-RES ovarian) was over 100 µM. It also gave a TGI (SN12C renal) of over 100 µM, a TGI (SK-MEL-28 melanoma) of over 100 µM and a TGI (U251 CNS) of over 100 µM. It also gave a TGI (HCT-116 colon) of over 100 µM, a TGI (BT-549 breast) of over 100 µM and a TGI (MDA-N) of over 100 µM. The TGI (MCF7 breast) was over 100 µM, the TGI (HS 578T breast) was over 100 µM and the TGI (MDA-MB-435) was over 100 µM. For the same molecule, the TGI (SF-295 CNS) was over 100 µM, the TGI (NCI-H460 lung) was over 100 µM and the TGI (SK-MEL-2 melanoma) was over 100 µM. It also gave a TGI (OVCAR-4 ovarian) of over 100 µM and a TGI (SF-268 CNS) of over 100 µM.

With `O=NC1c2cccc3cccc(c23)C1N=O` (stereo not given) the TGI (HL-60(TB) leukemia) was 6.61 µM, the TGI (ACHN renal) was 3.9 µM and the TGI (K-562 leukemia) was 11.7 µM. For the same molecule, the TGI (HOP-92 NSCLC) was 24.5 µM, the TGI (OVCAR-3 ovarian) was 9.6 µM and the TGI (RPMI-8226 leukemia) was 39.9 µM. The TGI (SW-620 colon) was 12.7 µM, the TGI (CAKI-1 renal) was 10.8 µM and the TGI (OVCAR-5 ovarian) was 9.11 µM. It also gave a TGI (UACC-257 melanoma) of 27.5 µM, a TGI (T-47D breast) of over 100 µM and a TGI (MOLT-4 leukemia) of over 100 µM. It also gave a TGI (PC-3 prostate) of 25.4 µM, a TGI (TK-10 renal) of 37.1 µM and a TGI (NCI-H23 lung) of 32.3 µM. The TGI (HCT-15 colon) was 5.02 µM, the TGI (LOX IMVI melanoma) was 5.6 µM and the TGI (SK-OV-3 ovarian) was 43.7 µM. It also gave a TGI (EKVX NSCLC) of 6.76 µM, a TGI (NCI-H522 lung) of 9.14 µM and a TGI (SF-539 CNS) of 26.6 µM. It also gave a TGI (SK-MEL-5 melanoma) of 30.7 µM, a TGI (UO-31 renal) of 11.7 µM and a TGI (M14 melanoma) of 27.3 µM. For the same molecule, the TGI (A549 NSCLC) was 17 µM, the TGI (SNB-75 CNS) was 31.3 µM and the TGI (HOP-62 NSCLC) was 19.5 µM. It also gave a TGI (CCRF-CEM leukemia) of 4.25 µM, a TGI (COLO 205 colon) of 17.2 µM and a TGI (HT29 colon) of 23.7 µM. For the same molecule, the TGI (786-0 renal) was 30.5 µM, the TGI (IGROV1 ovarian) was 3.19 µM and the TGI (OVCAR-8 ovarian) was 6.65 µM. It also gave a TGI (KM12 colon) of 17 µM, a TGI (SNB-19 CNS) of 43.4 µM and a TGI (A498 renal) of 35.8 µM. For the same molecule, the TGI (NCI/ADR-RES ovarian) was 7.21 µM, the TGI (U251 CNS) was 28.1 µM and the TGI (HCT-116 colon) was 3.81 µM. The TGI (RXF 393 renal) was 14.1 µM, the TGI (BT-549 breast) was 15.6 µM and the TGI (MDA-N) was 25.4 µM. The TGI (MCF7 breast) was 25.8 µM, the TGI (HS 578T breast) was 75.7 µM and the TGI (MDA-MB-435) was 25.7 µM. The TGI (SF-295 CNS) was 24.8 µM, the TGI (NCI-H460 lung) was 17.5 µM and the TGI (OVCAR-4 ovarian) was 3.56 µM. The TGI (SF-268 CNS) was 26.3 µM and the TGI (DU-145 prostate) was over 100 µM.
